Source: ChEMBL document CHEMBL2034968, “Discovery of novel urea-based hepatitis C protease inhibitors with high potency against protease-inhibitor-resistant mutants” (J Med Chem, 2012)

Assays:
Hepatitis C virus [1] = assay: Antiviral activity against Hepatitis C virus subtype 1b harboring protease D168V mutant by transient replicon assay; type: functional, organism-based, Hepacivirus hominis; conditions: genotype 1b
Hepatitis C virus [2] = assay: Antiviral activity against Hepatitis C virus subtype 1b harboring protease R155K mutant by transient replicon assay; type: functional, organism-based, Hepacivirus hominis; conditions: genotype 1b
Hepatitis C virus [3] = assay: Antiviral activity against Hepatitis C virus subtype 1a by stable replicon assay; type: functional, organism-based, Hepacivirus hominis
Hepatitis C virus [4] = assay: Antiviral activity against Hepatitis C virus subtype 1b harboring protease A156V mutant by transient replicon assay; type: functional, organism-based, Hepacivirus hominis; conditions: genotype 1b
Hepatitis C virus [5] = assay: Antiviral activity against Hepatitis C virus subtype 1b harboring protease D168A mutant by transient replicon assay; type: functional, organism-based, Hepacivirus hominis; conditions: genotype 1b
Hepatitis C virus [6] = assay: Resistance index, ratio of EC50 for Hepatitis C virus subtype 1b harboring protease D168V mutant to EC50 for wild type Hepatitis C virus subtype 1b; type: functional, Hepacivirus hominis, genotype 1b
[7] = Inhibition of HCV 1a protease 1a domain; parameters: species or system Hepacivirus hominis
Hepatitis C virus [8] = assay: Resistance index, ratio of EC50 for Hepatitis C virus subtype 1b harboring protease R155K mutant to EC50 for wild type Hepatitis C virus subtype 1b; type: functional, Hepacivirus hominis, genotype 1b
Hepatitis C virus [9] = assay: Antiviral activity against Hepatitis C virus subtype 1b harboring protease A156T mutant by transient replicon assay; type: functional, organism-based, Hepacivirus hominis; conditions: genotype 1b
Hepatitis C virus [10] = assay: Antiviral activity against Hepatitis C virus subtype 1b by stable replicon assay; type: functional, organism-based, Hepacivirus hominis; conditions: genotype 1b
Hepatitis C virus [11] = assay: Resistance index, ratio of EC50 for Hepatitis C virus subtype 1b harboring protease D168A mutant to EC50 for wild type Hepatitis C virus subtype 1b; type: functional, Hepacivirus hominis, genotype 1b
Hepatitis C virus [12] = assay: Antiviral activity against wild type Hepatitis C virus subtype 1b by transient replicon assay; type: functional, organism-based, Hepacivirus hominis; conditions: genotype 1b
Hepatitis C virus [13] = assay: Antiviral activity against Hepatitis C virus subtype 1b harboring protease A156S mutant by transient replicon assay; type: functional, organism-based, Hepacivirus hominis; conditions: genotype 1b
Hepatitis C virus [14] = assay: Ratio of EC50 for danoprevir to EC50 for compound against Hepatitis C virus subtype 1b harboring protease A156V mutant by transient replicon assay; type: functional, Hepacivirus hominis, genotype 1b
Hepatitis C virus [15] = assay: Ratio of EC50 for TMC-435350 to EC50 for compound against Hepatitis C virus subtype 1b harboring protease D168V mutant by transient replicon assay; type: functional, Hepacivirus hominis, genotype 1b
[16] = AUC in rat liver at 5 mg/kg, po; type: ADME, organism-based; parameters: dose 5 mg/kg, route oral
Hepatitis C virus [17] = assay: Ratio of EC50 for danoprevir to EC50 for compound against wild type Hepatitis C virus subtype 1b by transient replicon assay; type: functional, Hepacivirus hominis, genotype 1b
Rattus norvegicus [18] = assay: (§1) AUC in rat at 5 mg/kg, po; type: ADME, organism-based, Plasma; parameters: dose 5 mg/kg, route oral; conditions: in vivo
Hepatitis C virus [19] = assay: Ratio of EC50 for TMC-435350 to EC50 for compound against wild type Hepatitis C virus subtype 1b by transient replicon assay; type: functional, Hepacivirus hominis, genotype 1b
[20] = Maximum drug absorption in rat at 5 mg/kg, po; type: ADME, organism-based; parameters: dose 5 mg/kg, route oral; conditions: in vivo, read-out: Drug absorption
Hepatitis C virus [21] = assay: Ratio of EC50 for danoprevir to EC50 for compound against Hepatitis C virus subtype 1b harboring protease R155K mutant by transient replicon assay; type: functional, Hepacivirus hominis, genotype 1b
Hepatitis C virus [22] = assay: Ratio of EC50 for danoprevir to EC50 for compound against Hepatitis C virus subtype 1b harboring protease D168A mutant by transient replicon assay; type: functional, Hepacivirus hominis, genotype 1b
Hepatitis C virus [23] = assay: Ratio of EC50 for danoprevir to EC50 for compound against Hepatitis C virus subtype 1b harboring protease A156T mutant by transient replicon assay; type: functional, Hepacivirus hominis, genotype 1b
Hepatitis C virus [24] = assay: Ratio of EC50 for TMC-435350 to EC50 for compound against Hepatitis C virus subtype 1b harboring protease D168A mutant by transient replicon assay; type: functional, Hepacivirus hominis, genotype 1b
Hepatitis C virus [25] = assay: Ratio of EC50 for TMC-435350 to EC50 for compound against Hepatitis C virus subtype 1b harboring protease A156V mutant by transient replicon assay; type: functional, Hepacivirus hominis, genotype 1b
[26] = Terminal half life in rat liver at 5 mg/kg, po; type: ADME, organism-based; parameters: dose 5 mg/kg, route oral; conditions: read-out: beta t1/2 (converted)
Hepatitis C virus [27] = assay: Ratio of EC50 for TMC-435350 to EC50 for compound against Hepatitis C virus subtype 1b harboring protease A156T mutant by transient replicon assay; type: functional, Hepacivirus hominis, genotype 1b
Liver = assay: Ratio of drug level in liver to plasma in rat at 5 mg/kg, po; type: ADME, organism-based; parameters: dose 5 mg/kg, route oral; conditions: other tissue
Rattus norvegicus [28] = assay: Hepatic clearance in rat at 1 mg/kg, iv; type: ADME, organism-based, Liver; parameters: dose 1 mg/kg, route intravenous; conditions: in vivo
[29] = Terminal half life in rat at 5 mg/kg, po; type: ADME, organism-based; parameters: dose 5 mg/kg, route oral; conditions: in vivo, read-out: beta t1/2 (converted)
Hepatitis C virus [30] = assay: Ratio of EC50 for danoprevir to EC50 for compound against Hepatitis C virus subtype 1b harboring protease D168V mutant by transient replicon assay; type: functional, Hepacivirus hominis, genotype 1b
Hepatitis C virus [31] = assay: Ratio of EC50 for danoprevir to EC50 for compound against Hepatitis C virus subtype 1b harboring protease A156S mutant by transient replicon assay; type: functional, Hepacivirus hominis, genotype 1b
Rattus norvegicus [32] = assay: (§2) AUC in rat at 1 mg/kg, iv; type: ADME, organism-based, Plasma; parameters: dose 1 mg/kg, route intravenous; conditions: in vivo
Rattus norvegicus [33] = assay: Dose normalized AUC in rat at 5 mg/kg, po; type: ADME, organism-based; parameters: dose 5 mg/kg, route oral; conditions: in vivo
Hepatitis C virus [34] = assay: Ratio of EC50 for TMC-435350 to EC50 for compound against Hepatitis C virus subtype 1b harboring protease R155K mutant by transient replicon assay; type: functional, Hepacivirus hominis, genotype 1b
Hepatitis C virus [35] = assay: Ratio of EC50 for TMC-435350 to EC50 for compound against Hepatitis C virus subtype 1b harboring protease A156S mutant by transient replicon assay; type: functional, Hepacivirus hominis, genotype 1b
Rattus norvegicus [36] = assay: (§3) Oral bioavailability in rat at 5 mg/kg; type: ADME, organism-based; conditions: in vivo
[37] = as §1; type: ADME, organism-based, Plasma; parameters: dose 5 mg/kg, route oral; conditions: plasma
[38] = as §2; type: ADME, organism-based, Plasma; parameters: dose 1 mg/kg, route intravenous; conditions: plasma
[39] = as §3; type: ADME, organism-based; conditions: in vivo

Compound	EC50 (Hepatitis C virus [1]) [nM]	EC50 (Hepatitis C virus [2]) [nM]	EC50 (Hepatitis C virus [3]) [nM]	EC50 (Hepatitis C virus [4]) [nM]	EC50 (Hepatitis C virus [5]) [nM]	Ratio EC50 (Hepatitis C virus [6])	IC50 [7] [nM]	Ratio EC50 (Hepatitis C virus [8])	EC50 (Hepatitis C virus [9]) [nM]	EC50 (Hepatitis C virus [10]) [nM]	Ratio EC50 (Hepatitis C virus [11])	EC50 (Hepatitis C virus [12]) [nM]	EC50 (Hepatitis C virus [13]) [nM]	Fa [20] [%]	CLH (Rattus norvegicus [28]) [mL/min/kg]	half-life [29] [h]	AUC/dose (Rattus norvegicus [33]) [kg·µg·h/mL/mg]	further results
COc1ccc2c(O[C@@H]3C[C@H]4C(=O)N[C@@]5(C(=O)NS(=O)(=O)C6CC6)C[C@@H]5/C=C/CCCCN(C)C(=O)[C@@H]4C3)cc(-c3nc(C(C)C)cs3)nc2c1C	140	56	2	344	149	0.3	10	0.3	86	1	0.3	1	0.3	–	–	–	–	–
COc1ccc2c(O[C@@H]3C[C@H]4C(=O)N[C@]5(C(=O)NS(=O)(=O)C6CC6)C[C@H]5/C=C\CCCCC[C@H](NC(=O)N(C)C(C)C)C(=O)N4C3)cc(-c3nc(C4CC4)cs3)nc2c1C	37	5	0.3	5	17	<1000	0.8	<1000	2	0.4	<1000	0.04	0.05	–	–	–	–	–
CC(C)(C)OC(=O)N[C@H]1CCCCC/C=C\[C@@H]2C[C@@]2(C(=O)NS(=O)(=O)C2CC2)NC(=O)[C@@H]2C[C@@H](OC(=O)N3Cc4cccc(F)c4C3)CN2C1=O [DANOPREVIR]	26	82	2	8	39	10	0.7	10	10	1.5	10	0.2	2	–	–	–	–	–
COc1ccc2c(O[C@@H]3C[C@H]4C(=O)N[C@]5(C(=O)NS(=O)(=O)C6CC6)C[C@H]5/C=C\CCCCC[C@H](NC(=O)N(C(C)C)C(C)C)C(=O)N4C3)cc(-c3nc(C4CC4)cs3)nc2c1C	105	46	0.7	43	64	<1000	2	<1000	11	0.9	<1000	0.2	0.6	–	–	–	–	–
COc1ccc2c(O[C@@H]3C[C@H]4C(=O)N[C@]5(C(=O)NS(=O)(=O)C6CC6)C[C@H]5/C=C\CCCCC[C@H](NC(=O)N5CCCCC5)C(=O)N4C3)cc(-c3nc(C(C)C)cs3)nc2c1C	79	6	0.4	7	32	–	5	–	2	0.5	–	0.04	0.1	20	83.4	1.16	0.053	Ratio EC50 (Hepatitis C virus [14]): 1; Ratio EC50 (Hepatitis C virus [15]): 2; AUC [16]: 308000 ng·h/mL; Ratio EC50 (Hepatitis C virus [17]): 5; AUC (Rattus norvegicus [18]): 266 ng·h/mL; Ratio EC50 (Hepatitis C virus [19]): 23; Ratio EC50 (Hepatitis C virus [21]): 14; Ratio EC50 (Hepatitis C virus [22]): 1; Ratio EC50 (Hepatitis C virus [23]): 5; Ratio EC50 (Hepatitis C virus [24]): 5; Ratio EC50 (Hepatitis C virus [25]): 49; half-life [26]: 8.1 h; Ratio EC50 (Hepatitis C virus [27]): 43; Ratio (Liver): 1158; Ratio EC50 (Hepatitis C virus [30]): 0.3; Ratio EC50 (Hepatitis C virus [31]): 21; AUC (Rattus norvegicus [32]): 268 ng·h/mL; Ratio EC50 (Hepatitis C virus [34]): 9; Ratio EC50 (Hepatitis C virus [35]): 3.5; F (Rattus norvegicus [36]): 9.4%
COc1ccc2c(O[C@@H]3C[C@H]4C(=O)N[C@]5(C(=O)NS(=O)(=O)C6CC6)C[C@H]5/C=C\CCCCC[C@H](NC(=O)N5CC(F)(F)C5)C(=O)N4C3)cc(-c3nc(C(C)C)cs3)nc2c1C	58	14	0.8	6	15	<1000	2	<1000	1	0.5	<1000	0.1	–	6.8	91.03	0.806	0.014	AUC [37]: 69 ng·h/mL; AUC [38]: 203 ng·h/mL; bioavailability [39]: 4%
COc1ccc2c(O[C@@H]3C[C@H]4C(=O)N[C@]5(C(=O)NS(=O)(=O)C6CC6)C[C@H]5/C=C\CCCCC[C@H](NC(=O)N5CCC5)C(=O)N4C3)cc(-c3nc(C(C)C)cs3)nc2c1C	97	20	0.8	8	60	<1000	4	<1000	2	0.4	<1000	0.1	0.2	7.6	160.3	2.26	0.008	AUC [37]: 40.5 ng·h/mL; AUC [38]: 107 ng·h/mL; bioavailability [39]: 4.2%
CCC[C@H](NC(=O)[C@@H]1[C@H]2CCC[C@H]2CN1C(=O)[C@@H](NC(=O)[C@@H](NC(=O)c1cnccn1)C1CCCCC1)C(C)(C)C)C(=O)C(=O)NC1CC1 [TELAPREVIR]	207	1780	540	1960	638	6	500	6	1140	372	6	34	883	–	–	–	–	–
CCN(C)C(=O)N[C@H]1CCCCC/C=C\[C@@H]2C[C@@]2(C(=O)NS(=O)(=O)C2CC2)NC(=O)[C@@H]2C[C@@H](Oc3cc(-c4nc(C(C)C)cs4)nc4c(C)c(OC)ccc34)CN2C1=O	147	25	0.7	11	60	<1000	6	<1000	3	0.4	<1000	0.2	0.5	–	–	–	–	–
CCN(C(=O)N[C@H]1CCCCC/C=C\[C@@H]2C[C@@]2(C(=O)NS(=O)(=O)C2CC2)NC(=O)[C@@H]2C[C@@H](Oc3cc(-c4nc(C5CC5)cs4)nc4c(C)c(OC)ccc34)CN2C1=O)C(C)C	151	16	0.4	24	50	<1000	1	<1000	8	0.4	<1000	0.2	0.7	–	–	–	–	–
